Here are results for four molecules from PMC5320564 (Journal of molecular biology, 2011).

Data set [1] has as its target EcPhnD-K181C:IANBD (Escherichia coli, UniProt P16682, K207C). Kind of data set: biochemical. It is filed as binding.
Data set [2] addresses EcPhnD-Q267C:acrylodan. To be noted: read-out: Phosphonate affinities (Kd); cited from earlier work.
Data set [3] deals with EcPhnD-Q17C:IANBD (Escherichia coli, UniProt P16682, Q43C). The format is binding.
In data set [4] the target is EcPhnD (Escherichia coli, UniProt P16682). The conditions noted are these: read-out: affinity; cited from earlier work.
Data set [5] deals with EcPhnD with cpGFP inserted at position 147. It is filed as binding, Escherichia coli.
Data set [6] concerns EcPhnD142-cpGFP. It is filed as binding, Escherichia coli.
Data set [7] addresses EcPhnD90-cpGFP.L1ADΔΔ.L297R,L301R (Escherichia coli, UniProt Q1R3F7, L323R/L327R, form not given). The format is binding.
Data set [8] deals with EcPhnD87-cpGFP. It is filed as binding, Escherichia coli.
Data set [9] deals with the molecule itself. The data set is described as follows: crystal structure.

Chain of EcPhnD-K181C:IANBD (P16682 27-338 K207C): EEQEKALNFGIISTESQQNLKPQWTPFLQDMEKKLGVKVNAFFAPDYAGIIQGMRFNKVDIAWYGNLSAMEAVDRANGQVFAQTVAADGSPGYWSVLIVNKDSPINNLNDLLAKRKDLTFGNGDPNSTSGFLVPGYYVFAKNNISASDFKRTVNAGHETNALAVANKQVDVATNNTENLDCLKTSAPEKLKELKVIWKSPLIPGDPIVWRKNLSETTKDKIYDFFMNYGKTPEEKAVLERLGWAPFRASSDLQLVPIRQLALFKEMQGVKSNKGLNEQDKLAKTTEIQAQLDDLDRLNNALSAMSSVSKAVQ
Chain of EcPhnD-Q17C:IANBD (P16682 27-338 Q43C): as the sequence (P16682 27-338 K207C) above, with Q17C, C181K counted along it

`O=C(O)CNCP(=O)(O)O` [Glyphosate (GP), Glyphosate]: the Kd in data set [1] was 260000 ± 20000 nM; in data set [2], 650000 nM.

As for `NCCP(=O)(O)O` [2AEP, 2-aminoethylphosphonate], the Kd is 11 ± 5 nM in data set [3]; approximately 5 nM in data set [4]; 37000 ± 7000 nM in [7] (read-out: Phosphonate affinities (Kd)); 540 ± 40 nM in [1]; 5 nM in data set [2]. In addition, the ΔF/F0 in [3] was 1.2±0.1; in [1], −0.72±0.01. The “affinity for 2AEP by ITC (in words)” value in data set [5] was “dramatically decreased affinity”; in [6] it was “dramatically decreased affinity”; in data set [8], “high affinity”. The molecule also displayed a ΔF/F0 increase in data set [7] of 1.6.

B1: Selenomethionine-substituted EcPhnD (natural protein, E. coli, UniProt P16682 27-338, looked up)
chain: EEQEKALNFGIISTESQQNLKPQWTPFLQDMEKKLGVKVNAFFAPDYAGIIQGMRFNKVDIAWYGNLSAMEAVDRANGQVFAQTVAADGSPGYWSVLIVNKDSPINNLNDLLAKRKDLTFGNGDPNSTSGFLVPGYYVFAKNNISASDFKRTVNAGHETNALAVANKQVDVATNNTENLDKLKTSAPEKLKELKVIWKSPLIPGDPIVWRKNLSETTKDKIYDFFMNYGKTPEEKAVLERLGWAPFRASSDLQLVPIRQLALFKEMQGVKSNKGLNEQDKLAKTTEIQAQLDDLDRLNNALSAMSSVSKAVQ
modifications: selenomethionine in place of methionine
For B1, the “stoichiometry N” value in [9] turned out to be 2.

B2: EcPhnD H157A (natural protein, E. coli, UniProt P16682 27-338, looked up)
chain: EEQEKALNFGIISTESQQNLKPQWTPFLQDMEKKLGVKVNAFFAPDYAGIIQGMRFNKVDIAWYGNLSAMEAVDRANGQVFAQTVAADGSPGYWSVLIVNKDSPINNLNDLLAKRKDLTFGNGDPNSTSGFLVPGYYVFAKNNISASDFKRTVNAGAETNALAVANKQVDVATNNTENLDKLKTSAPEKLKELKVIWKSPLIPGDPIVWRKNLSETTKDKIYDFFMNYGKTPEEKAVLERLGWAPFRASSDLQLVPIRQLALFKEMQGVKSNKGLNEQDKLAKTTEIQAQLDDLDRLNNALSAMSSVSKAVQ
With B2, in [9], the “stoichiometry N” value worked out at 2.

The term stoichiometry N denotes a count of units in the complex or per binding partner.
